According to BindingDB's records for doi:10.1016/j.ejmech.2023.115171 (Shenyang Pharmaceutical University, 2023):

Biological target: Hypoxia-inducible factor 1-alpha
Assay: Inhibition of HIF-1 alpha transcriptional activity in human U-251 cells incubated for 24 hrs under hypoxia condition by luciferse reporter assay

SMILES	IC50 [µM]
COc1ccc(/C=C/C(=O)c2ccc3c(c2O)C=CC(C)(C)O3)cc1OCCN1CCC(C)CC1	3.99
COc1ccc(/C=C/C(=O)c2ccc3c(c2O)C=CC(C)(C)O3)cc1OCCN1CCOCC1	10.6
COc1ccc(/C=C/C(=O)c2ccc3c(c2O)C=CC(C)(C)O3)cc1OCCN1CCN(C)CC1	3.6
COc1ccc(/C=C/C(=O)c2ccc3c(c2O)C=CC(C)(C)O3)cc1OCCN1CCCC1	2.38
COc1ccc(/C=C/C(=O)c2ccc3c(c2O)C=CC(C)(C)O3)cc1OCCCN1CCCCC1	5.38
COc1ccc(/C=C/C(=O)c2ccc3c(c2O)C=CC(C)(C)O3)cc1OCCCN1CCC(C)CC1	6.23
COc1ccc(/C=C/C(=O)c2ccc3c(c2O)C=CC(C)(C)O3)cc1OCCCN1CCOCC1	3.31
COc1ccc(/C=C/C(=O)c2ccc3c(c2O)C=CC(C)(C)O3)cc1OCCCN1CCN(C)CC1	5.19
COc1ccc(/C=C/C(=O)c2ccc3c(c2O)C=CC(C)(C)O3)cc1OCCCN1CCCC1	2.38
CCN(CC)CCCOc1cc(/C=C/C(=O)c2ccc3c(c2O)C=CC(C)(C)O3)ccc1OC	5.65
COc1cc(/C=C/C(=O)c2ccc3c(c2O)C=CC(C)(C)O3)ccc1OCCN1CCCCC1	5.4
COc1cc(/C=C/C(=O)c2ccc3c(c2O)C=CC(C)(C)O3)ccc1OCCN1CCC(C)CC1	5.75
COc1cc(/C=C/C(=O)c2ccc3c(c2O)C=CC(C)(C)O3)ccc1OCCN1CCOCC1	8.09
COc1cc(/C=C/C(=O)c2ccc3c(c2O)C=CC(C)(C)O3)ccc1OCCN1CCN(C)CC1	3.6
COc1cc(/C=C/C(=O)c2ccc3c(c2O)C=CC(C)(C)O3)ccc1OCCN1CCCC1	6.45
CCN(CC)CCOc1ccc(/C=C/C(=O)c2ccc3c(c2O)C=CC(C)(C)O3)cc1OC	6.29
COc1cc(/C=C/C(=O)c2ccc3c(c2O)C=CC(C)(C)O3)ccc1OCCCN1CCCCC1	5.55
COc1cc(/C=C/C(=O)c2ccc3c(c2O)C=CC(C)(C)O3)ccc1OCCCN1CCC(C)CC1	3.78
COc1cc(/C=C/C(=O)c2ccc3c(c2O)C=CC(C)(C)O3)ccc1OCCCN1CCOCC1	10.5
COc1cc(/C=C/C(=O)c2ccc3c(c2O)C=CC(C)(C)O3)ccc1OCCCN1CCN(C)CC1	5.76
COc1cc(/C=C/C(=O)c2ccc3c(c2O)C=CC(C)(C)O3)ccc1OCCCN1CCCC1	2.97
CCN(CC)CCCOc1ccc(/C=C/C(=O)c2ccc3c(c2O)C=CC(C)(C)O3)cc1OC	6.3
COc1ccc(/C=C/C(=O)c2ccc3c(c2O)C=CC(C)(C)O3)cc1O	6.98
